# Where a name gives a salt, the structure may show the parent alone. Read-outs that look alike come from different tables or passages of the source.
# How the values were obtained:
# α1 = α1 antagonism (inhibition of phenylephrine hypertensive response, pithed rats); format: in vivo, rats (male Sprague-Dawley); conditions: cumulative doses, phenylephrine 4 g/kg i.v., Tertatolol 100 μg/kg i.v. pretreatment
# From the text: α1 antagonism Male Sprague-Dawley rats (300-400 g) which have been subjected to a water diet are anesthetized with ethyl ether. A cannula is placed in the trachea. The spinal cord is destroyed by means of a steel rod and artificial respiration is instituted at once. The vagus nerves are sectioned. The carotid arteries are ligated and a catheter is placed in one of them to record the arterial blood pressure. A second catheter is placed in the vein of the penis and is used for the injections. The animals' temperature is taken and is maintained at 36° C. The rats are pretreated with a β-blocker (Tertatolol 100 μg/kg i.v.). Phenylephrine is injected at a dose of […] i.v. Two identical injections are performed, separated by an interval of 10 minutes. The compounds of the invention are injected at the lowest dose and injection of phenylephrine is performed again 10 minutes later. 3 or 4 cumulative doses of the compounds of the invention are tested in the same manner. The values for the percentage inhibition of the hypertensive response which are obtained at the different doses are calculated in order to determine the ID50.
# 5-hydroxytryptophan = experiment: 5-HTP antagonism (symptoms induced by 5-hydroxytryptophan); format: in vivo, rats (female Wistar); conditions: Rattus norvegicus
# Procedure: The animals are then placed under observation in transparent cages. Three parameters are assessed in the study: "forepaw treading", "flat body posture" and "head twitches". "Forepaw treading" corresponds to a pedaling motion of the forelimbs. This parameter is measured 80 minutes after the administration of […] and during a 10-minute observation period. […] This parameter is assessed throughout the period of observation of the animals.
# 5-HT2 = target: T1, 5-HT2 (Rattus norvegicus, UniProt P14842); experiment: 5-HT2 antagonism (inhibition of 5-hydroxytryptamine hypertensive response, anesthetized rats); format: in vivo, rats (male Sprague-Dawley); conditions: iv, cumulative doses, 5-hydroxytryptamine 100 μg/kg i.v., rats pretreated with d-tubocurarine and prazosin, read-out: ID50, dose inhibiting the hypertensive response by 50%
# T1 construct: from tissue; host or cells: whole anesthetized male Sprague-Dawley rat; vasculature (blood pressure response)
# Procedure: Male Sprague-Dawley rats (350-400 g) are anesthetized i.p. with pentobarbital (45 mg/kg). The trachea is cannulated and the animals are subjected to artificial respiration. The vagus nerves are sectioned. A catheter is placed in a carotid artery to record the arterial blood pressure. A second catheter is placed in the vein of the penis and is used for the injections. The animals' temperature is taken and is maintained at 37° C. The rats are pretreated with d-tubocurarine (1 mg/kg i.v.) and prazosin (1 mg/kg i.v.). 5-Hydroxytryptamine is injected i.v. at a dose of 100 μg/kg twice, separated by an interval of 10 minutes, so as to determine the rise in the systolic arterial blood pressure of each rat. 10 minutes later, the compounds of the invention are injected at the lowest dose and injection of 5-hydroxytryptamine is performed again 10 minutes later. 3 or 4 cumulative doses of the compounds of the invention are tested in the same manner. The percentages of the hypertensive response which are obtained at the different doses are calculated in order to determine the ID50, the dose inhibiting the hypertensive response by 50%.
# [1] = po, 80 min, compounds orally, 5-hydroxytryptophan 320 mg/kg by gavage, scored at 80 minutes, read-out: ED50 FPT (forepaw treading)
# [2] = po, compounds orally, 5-hydroxytryptophan 320 mg/kg by gavage, read-out: ED50 FBP (flat body posture)
# [3] = po, 1.5 h, read-out: ED50 HT (head twitches)
# [4] = sc, 80 min, compounds subcutaneously, 5-hydroxytryptophan 320 mg/kg by gavage, scored at 80 minutes, read-out: ED50 FPT (forepaw treading)
# [5] = sc, 1.5 h, read-out: ED50 HT (head twitches)
# [6] = sc, compounds subcutaneously, 5-hydroxytryptophan 320 mg/kg by gavage, read-out: ED50 FBP (flat body posture)
# [7] = ip, 80 min, compounds intraperitoneally, 5-hydroxytryptophan 320 mg/kg by gavage, scored at 80 minutes, read-out: ED50 FPT (forepaw treading)
# [8] = ip, 1.5 h, read-out: ED50 HT (head twitches)
# [9] = ip, compounds intraperitoneally, 5-hydroxytryptophan 320 mg/kg by gavage, read-out: ED50 FBP (flat body posture)
# T1 sequence (P14842 whole entry): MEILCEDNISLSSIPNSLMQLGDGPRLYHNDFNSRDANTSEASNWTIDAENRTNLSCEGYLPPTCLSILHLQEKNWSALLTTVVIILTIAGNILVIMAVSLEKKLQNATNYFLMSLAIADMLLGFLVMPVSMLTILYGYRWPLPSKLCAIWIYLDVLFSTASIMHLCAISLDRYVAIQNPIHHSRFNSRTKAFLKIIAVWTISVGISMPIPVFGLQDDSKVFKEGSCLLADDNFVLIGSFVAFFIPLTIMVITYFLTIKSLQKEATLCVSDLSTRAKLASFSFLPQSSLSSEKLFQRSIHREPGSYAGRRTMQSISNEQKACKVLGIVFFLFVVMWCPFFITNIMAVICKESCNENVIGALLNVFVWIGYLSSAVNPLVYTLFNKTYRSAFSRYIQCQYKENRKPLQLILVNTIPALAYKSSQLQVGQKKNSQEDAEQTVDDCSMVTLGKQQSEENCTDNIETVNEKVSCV
compound,measurement,setting,value
"Cc1nc2c(C(N)=O)ncn2c(O)c1CCN1CCC(C=C(c2ccc(F)cc2)c2ccc(F)cc2)C1 (centres unmarked) [EXAMPLE 24, 3-(3-4-2,2-Bis(4-fluorophenyl)vinyl]pyrrolidino]ethyl}-8-carbamoyl-4-hydroxy-2-methylimidazo[1,5-a]-pyrimidine hydrochloride]","ID50, inhibition of the hypertensive response to phenylephrine",α1,> 5 mg/kg
"O=C1CN(Cc2ccccc2F)CC(=O)N1CCCN1CCC(=C2c3ccccc3-c3ccccc32)CC1 [EXAMPLE 6, 1-{3-[4-(9-Fluorenylidenyl)piperidino]propyl}-4-(2-fluorobenzyl)-2,6-piperazinedione hydrochloride]",ED50,5-hydroxytryptophan; [1],5 mg/kg
same,ED50,5-hydroxytryptophan; [2],2.5 mg/kg
same,ED50,5-HT2,0.039 mg/kg
"Cc1nc2c(C#N)ncn2c(O)c1CCN1CCC(=C(c2ccccc2)c2ccc(F)cc2)CC1.Cl [EXAMPLE 4, 8-Cyano-3-{2-[4-[(4-fluorophenyl)phenylmethylene]piperidino]ethyl}-4-hydroxy-2-methylimidazo[1,5-a]-pyrimidine hydrochloride]","ID50, inhibition of the hypertensive response to phenylephrine",α1,> 5 mg/kg
same,ED50,5-hydroxytryptophan; [1],1.25 mg/kg
same,ED50,5-hydroxytryptophan; [3],10 mg/kg
same,ED50,5-hydroxytryptophan; [2],1.25 mg/kg
"O=C1CN(Cc2ccccn2)CC(=O)N1CCCN1CCC(=C(c2ccccc2)c2ccc(F)cc2)CC1 [EXAMPLE 10, 1-{3-4-(4-Fluorophenyl)phenylmethylene]piperidino]propyl}-4-(2-pyridylmethyl)-2,6-piperazinedione dihydrochloride]",ED50,5-hydroxytryptophan; [4],1.25 mg/kg
same,ED50,5-hydroxytryptophan; [5],40 mg/kg
same,ED50,5-hydroxytryptophan; [6],0.16 mg/kg
same,ED50,5-HT2,0.0082 mg/kg
"Cc1nc2c(C(N)=O)ncn2c(O)c1CCN1CCC(=C(c2ccccc2)c2ccc(F)cc2)CC1.Cl [EXAMPLE 3, 8-Carbamoyl-3-{2-[4-[(4-fluorophenyl)phenylmethylene]piperidino]ethyl}-4-hydroxy-2-methylimidazo[1,5-a]-pyrimidine hydrochloride]","ID50, inhibition of the hypertensive response to phenylephrine",α1,> 5 mg/kg
same,ED50,5-hydroxytryptophan; [4],10 mg/kg
same,ED50,5-hydroxytryptophan; [6],10 mg/kg
same,ED50,5-HT2,0.024 mg/kg
"O=C1CN(Cc2ccccc2F)CC(=O)N1CCCN1CCC(C=C(c2ccc(F)cc2)c2ccc(F)cc2)C1 (centres unmarked) [EXAMPLE 8, 1-{3-[3-[2,2-bis(4-fluorophenyl)vinylene]-1-pyrrolidinyl]propyl}-4-(2-fluorobenzyl)-2,6-piperazinedione dihydrochloride]","ID50, inhibition of the hypertensive response to phenylephrine",α1,5.3 mg/kg
"Cl.Cl.O=C1CN2Cc3ccccc3CC2C(=O)N1CCN1CCC(=C(c2ccccc2)c2ccc(F)cc2)CC1 (centres unmarked) [EXAMPLE 2, 2-{2-[4-[(4-Fluorophenyl)phenylmethylene]piperidino]ethyl}-1,3,4,6,11,11a-hexahydro-1,3-dioxo-2H-pyrazino[1,2-b]-isoquinoline dihydrochloride]",ED50,5-hydroxytryptophan; [7],1.25 mg/kg
same,ED50,5-hydroxytryptophan; [8],5 mg/kg
same,ED50,5-hydroxytryptophan; [9],1.25 mg/kg
"Fc1ccc(C(=C2CCN(CCCN3CCN(c4ncccn4)CC3)CC2)c2ccc(F)cc2)cc1 [EXAMPLE 7, 1-{3-[4-Bis(4-fluorophenyl)methylene]piperidino]propyl}-4-(2-pyrimidinyl)piperazine dihydrochloride]",ED50,5-hydroxytryptophan; [4],5 mg/kg
same,ED50,5-hydroxytryptophan; [5],> 10 mg/kg
same,ED50,5-hydroxytryptophan; [6],5 mg/kg
"Cc1nc2c(C(N)=O)ncn2c(O)c1CCN1CCC(=C(c2ccc(F)cc2)c2ccc(F)cc2)CC1.Cl [EXAMPLE 1, 3-{2-[4-[bis(4-fluorophenyl)methylene]piperidino]ethyl}-8-carbamoyl-4-hydroxy-2-methylimidazo [1,5-a]pyrimidine hydrochloride]","ID50, inhibition of the hypertensive response to phenylephrine",α1,> 5 mg/kg
same,ED50,5-hydroxytryptophan; [7],2.5 mg/kg
same,ED50,5-hydroxytryptophan; [8],0.63 mg/kg
same,ED50,5-hydroxytryptophan; [9],0.08 mg/kg
same,ED50,5-hydroxytryptophan; [1],10 mg/kg
same,ED50,5-hydroxytryptophan; [3],> 10 mg/kg
same,ED50,5-hydroxytryptophan; [2],0.16 mg/kg
same,ED50,5-HT2,0.013 mg/kg
"Cc1nc2c(C#N)ncn2c(O)c1CCN1CCC(=C(c2ccc(F)cc2)c2ccc(F)cc2)CC1 [EXAMPLE 11, 3-{2-[4-Bis(4-fluorophenyl)methylene]piperidino]ethyl}-8-cyano-4-hydroxy-2-methylimidazo[1,5-a]-pyrimidine hydrochloride]","ID50, inhibition of the hypertensive response to phenylephrine",α1,> 5 mg/kg
same,ED50,5-hydroxytryptophan; [1],5 mg/kg
same,ED50,5-hydroxytryptophan; [3],10 mg/kg
same,ED50,5-hydroxytryptophan; [2],1.25 mg/kg
"O=c1[nH]c2ccccc2c(=O)n1CCN1CCCC(=C(c2ccc(F)cc2)c2ccc(F)cc2)CC1 [EXAMPLE 25, 3-{2-[4-[Bis(4-fluorophenyllmethylene]perhydroazepin-1-yl]ethyl}-2,4-dioxo-1,2,3,4-tetrahydrocuinazoline hydrochloride]","ID50, inhibition of the hypertensive response to phenylephrine",α1,3.05 mg/kg
"Cc1nc2c(C(N)=O)ncn2c(O)c1CCCN1CCC(=C(c2ccccc2)c2ccc(F)cc2)CC1.Cl [EXAMPLE 9, 8-Carbamoyl-3-{3-[4-[(4-fluorophenyl)phenylmethylene]piperidino]propyl}-4-hydroxy-2-methylimidazo[1,5-a]-pyrimidine hydrochloride]","ID50, inhibition of the hypertensive response to phenylephrine",α1,> 5 mg/kg
"Cc1ccc(C(=C2CCN(CCc3c(C)nc4c(C(N)=O)ncn4c3O)CC2)c2ccccc2)cc1.Cl [EXAMPLE 13, 8-Carbamoyl-4-hydroxy-3-{2-[4-[(4-methylphenyl)-phenylmethylene]piperidino]ethyl}-2-methylimidazo[1,5-a]-pyrimidine hydrochloride]","ID50, inhibition of the hypertensive response to phenylephrine",α1,3.05 mg/kg
same,ED50,5-HT2,0.027 mg/kg
"Cc1nc2c(C(N)=O)ncn2c(O)c1CCN1CCCC(C=C(c2ccc(F)cc2)c2ccc(F)cc2)C1 (centres unmarked) [EXAMPLE 23, 3-{2-[3-[2,2-Bis(4-fluorophenyl)vinylene]piperidino]ethyl}-8-carbamoyl-4-hydroxy-2-methylimidazo[1,5-a]-pyrimidinehydrochloride]","ID50, inhibition of the hypertensive response to phenylephrine",α1,> 5 mg/kg
"Cl.O=C1CN(Cc2ccccc2F)CC(=O)N1CCCN1CCC(=C(c2ccccc2)c2ccc(F)cc2)CC1 [EXAMPLE 5, 4-(2-Fluorobenzyl)-1-{3-[4-[(4-fluorophenyl)phenylmethylene]piperidino]propyl}-2,6-piperazinedione hydrochloride]",ED50,5-HT2,0.034 mg/kg

# — patent publication US5028607A, “Bis(aryl)alkene compounds” (Adir et Compagnie, priority 1989, dated 1991)
